{
  "source": "patent US20190105268A1",
  "about": "“Viscoelastic Gel of Liraglutide Adapted for Once-Weekly or Once Bi-Weekly Administration” (Sun Pharma Advanced Research Company Limited, priority 2016, published 2019)",
  "origin": "cited, not measured here",
  "data": [
    {"substance": "liraglutide", "values": [
      {"measurement": "solubility in DMSO", "setting": "DMSO", "result": "slightly soluble"},
      {"measurement": "solubility in ethanol", "setting": "ethanol", "result": 1100, "unit": "µg/mL"},
      {"measurement": "solubility in methanol", "setting": "methanol", "result": "up to 68 mg/ml"},
      {"measurement": "solubility in water", "setting": "water", "result": "insoluble to slightly soluble"}
    ]}
  ]
}
